Assay results as given in ChEMBL document CHEMBL3885861, “Open TG-GATES”.

Species on record: Rattus norvegicus
Experiment: Open TG-GATES - Regimen: Daily Repeat
Type: toxicity, organism-based, Sprague-Dawley
Parameters: regimen Daily Repeat, gender Male, age 6 weeks
Settings: in vivo, po, route gavage; for APTT / Bas / Eos / Hb / Ht / Lym / MCH / MCHC / MCV / Mono / PT / Plat / RBC / Ret / WBC / Neu: tissue Blood; for KIDNEY_L / KIDNEY_R / KIDNEY_TOTAL: tissue Kidney; for LIVER: tissue Liver; for ALT / AST / BUN / CRE / Ca / DBIL / GLC / IP / K / LDH / Na / PL / RALB / TBIL / TC / TP / gamma-GTP / TG / ALP: tissue Plasma
[1] = 0 mg/kg, 72 h, dose level Control, time 3 day
[2] = 0 mg/kg, […], dose level Control, time 7 day
[3] = 0 mg/kg, […], dose level Control, time 14 day
[4] = 0 mg/kg, […], dose level Control, time 28 day
[5] = 100 mg/kg, 72 h, dose level Low, time 3 day
[6] = 100 mg/kg, […], dose level Low, time 7 day
[7] = 100 mg/kg, […], dose level Low, time 14 day
[8] = 100 mg/kg, […], dose level Low, time 28 day
[9] = 300 mg/kg, 72 h, dose level Middle, time 3 day

## C[C@H](CS)C(=O)N1CCC[C@H]1C(=O)O [CAPTOPRIL]
[1]
  TERMINAL_BW: 245.5 g
  APTT: 16.1 s
  Bas: 0%
  Eos: 1.2%
  Hb: 13.4 g/dL
  Ht: 41%
  Lym: 82.8%
  MCH: 21.5 pg
  MCHC: 32.7%
  MCV: 65.6 fL
  Mono: 5.8%
  PT: 11.3 s
  Plat: 117.3 x10_4/uL
  RBC: 625 x10_4/ul
  Ret: 7.6%
  WBC: 119.1 x10_2/uL
  KIDNEY_L: 1.1 g
  KIDNEY_R: 1.1 g
  KIDNEY_TOTAL: 2.2 g
  LIVER: 11.9 g
  ALT: 40.4 IU/L
  AST: 64.8 IU/L
  BUN: 17.6 mg/dL
  CRE: 0.5 mg/dL
  Ca: 11.3 mg/dL
  DBIL: 0.016 mg/dL
  GLC: 197.6 mg/dL
  IP: 8.9 mg/dL
  K: 4.8 meq/L
  LDH: 86.2 IU/L
  Na: 139 meq/L
  PL: 142.4 mg/dL
  RALB: 3.8 g/dL
  TBIL: 0.4 mg/dL
  TC: 70.6 mg/dL
  TP: 5.7 g/dL
  gamma-GTP: 1.2 IU/L
[2]
  TERMINAL_BW: 274 g
  APTT: 16.6 s
  Bas: 0%
  Eos: 0.8%
  Hb: 13.8 g/dL
  Ht: 41.7%
  Lym: 83%
  MCH: 21.1 pg
  MCHC: 33.1%
  MCV: 63.9 fL
  Mono: 4%
  Neu: 12.4%
  Plat: 113.7 x10_4/uL
  RBC: 653.4 x10_4/ul
  Ret: 6.1%
  WBC: 144.9 x10_2/uL
  KIDNEY_L: 1.1 g
  KIDNEY_R: 1.1 g
  KIDNEY_TOTAL: 2.3 g
  LIVER: 13 g
  ALT: 37.8 IU/L
  AST: 62 IU/L
  BUN: 18.8 mg/dL
  CRE: 0.6 mg/dL
  DBIL: 0.002 mg/dL
  GLC: 198 mg/dL
  IP: 8.1 mg/dL
  K: 4.9 meq/L
  LDH: 72.4 IU/L
  Na: 141.4 meq/L
  PL: 132.2 mg/dL
  RALB: 3.8 g/dL
  TBIL: 0.3 mg/dL
  TC: 65.2 mg/dL
  TG: 79.8 mg/dL
  TP: 5.8 g/dL
  gamma-GTP: 1.2 IU/L
[3]
  TERMINAL_BW: 333.4 g
  APTT: 16.9 s
  Bas: 0%
  Eos: 1%
  Hb: 14.3 g/dL
  Ht: 43.1%
  Lym: 80.8%
  MCH: 20.5 pg
  MCHC: 33.1%
  MCV: 62.1 fL
  Mono: 6%
  Neu: 12.4%
  PT: 11.4 s
  Plat: 112.4 x10_4/uL
  RBC: 694.8 x10_4/ul
  Ret: 4.1%
  WBC: 122.3 x10_2/uL
  KIDNEY_L: 1.3 g
  KIDNEY_R: 1.3 g
  KIDNEY_TOTAL: 2.6 g
  LIVER: 15.7 g
  ALP: 916.4 IU/L
  ALT: 32.6 IU/L
  AST: 60.2 IU/L
  BUN: 17.8 mg/dL
  CRE: 0.5 mg/dL
  DBIL: 0 mg/dL
  GLC: 202.6 mg/dL
  IP: 8.1 mg/dL
  K: 4.5 meq/L
  LDH: 76.8 IU/L
  Na: 139.4 meq/L
  PL: 169.6 mg/dL
  RALB: 3.9 g/dL
  TBIL: 0.3 mg/dL
  TC: 85.4 mg/dL
  TG: 152 mg/dL
  TP: 6 g/dL
  gamma-GTP: 1.2 IU/L
[4]
  TERMINAL_BW: 402.1 g
  APTT: 16.7 s
  Bas: 0%
  Eos: 1%
  Hb: 14.5 g/dL
  Ht: 43.7%
  Lym: 86.8%
  MCH: 19 pg
  MCHC: 33.1%
  MCV: 57.4 fL
  Mono: 4.4%
  Neu: 7.8%
  PT: 11.9 s
  RBC: 761.8 x10_4/ul
  Ret: 2.5%
  WBC: 154.2 x10_2/uL
  KIDNEY_L: 1.4 g
  KIDNEY_R: 1.4 g
  KIDNEY_TOTAL: 2.9 g
  LIVER: 17 g
  ALP: 633 IU/L
  ALT: 31.4 IU/L
  AST: 58 IU/L
  BUN: 20.4 mg/dL
  CRE: 0.6 mg/dL
  DBIL: 0.026 mg/dL
  GLC: 213.6 mg/dL
  IP: 7.7 mg/dL
  K: 4.3 meq/L
  LDH: 110.2 IU/L
  Na: 139.8 meq/L
  PL: 150 mg/dL
  RALB: 3.9 g/dL
  TBIL: 0.3 mg/dL
  TC: 69.2 mg/dL
  TG: 142.4 mg/dL
  TP: 6.1 g/dL
  gamma-GTP: 0.6 IU/L
[5]
  TERMINAL_BW: 236.5 g
  APTT: 16.5 s
  Bas: 0%
  Eos: 1%
  Hb: 13.6 g/dL
  Ht: 41.2%
  Lym: 79.6%
  MCH: 21.6 pg
  MCHC: 33.1%
  MCV: 65.3 fL
  Mono: 8.4%
  Neu: 11.4%
  PT: 11.2 s
  Plat: 120 x10_4/uL
  RBC: 632.2 x10_4/ul
  Ret: 7.1%
  WBC: 121.4 x10_2/uL
  KIDNEY_L: 0.9 g
  KIDNEY_R: 1 g
  KIDNEY_TOTAL: 1.9 g
  LIVER: 11.7 g
  ALP: 857.2 IU/L
  ALT: 40.4 IU/L
  AST: 67 IU/L
  BUN: 21.2 mg/dL
  CRE: 0.5 mg/dL
  Ca: 11.4 mg/dL
  DBIL: 0.01 mg/dL
  GLC: 193.6 mg/dL
  IP: 8.4 mg/dL
  K: 5 meq/L
  LDH: 116.8 IU/L
  Na: 138.4 meq/L
  PL: 150.6 mg/dL
  RALB: 4.2 g/dL
  TBIL: 0.3 mg/dL
  TC: 81 mg/dL
  TP: 6.1 g/dL
  gamma-GTP: 1.4 IU/L
[6]
  TERMINAL_BW: 261.5 g
  APTT: 15.6 s
  Bas: 0%
  Eos: 0.6%
  Hb: 13.8 g/dL
  Ht: 41.4%
  Lym: 84%
  MCH: 20.7 pg
  MCHC: 33.2%
  MCV: 62.4 fL
  Mono: 4.8%
  Plat: 134.3 x10_4/uL
  RBC: 664.8 x10_4/ul
  Ret: 4.9%
  WBC: 139.3 x10_2/uL
  KIDNEY_L: 1.1 g
  KIDNEY_R: 1.2 g
  KIDNEY_TOTAL: 2.3 g
  LIVER: 12.3 g
  ALT: 40.8 IU/L
  AST: 67.6 IU/L
  BUN: 20 mg/dL
  CRE: 0.5 mg/dL
  DBIL: 0.002 mg/dL
  GLC: 203.8 mg/dL
  IP: 8.2 mg/dL
  K: 5.1 meq/L
  LDH: 77 IU/L
  Na: 139.2 meq/L
  PL: 144.2 mg/dL
  RALB: 4 g/dL
  TBIL: 0.3 mg/dL
  TC: 74.6 mg/dL
  TG: 83.6 mg/dL
  TP: 6 g/dL
  gamma-GTP: 1.8 IU/L
[7]
  TERMINAL_BW: 305.1 g
  APTT: 16.9 s
  Bas: 0%
  Eos: 1.2%
  Hb: 14.2 g/dL
  Ht: 42.9%
  Lym: 77%
  MCH: 19.9 pg
  MCHC: 33.2%
  MCV: 60 fL
  Mono: 7.6%
  Neu: 14.4%
  PT: 11.6 s
  RBC: 717 x10_4/ul
  Ret: 3.5%
  WBC: 93.7 x10_2/uL
  KIDNEY_L: 1.2 g
  KIDNEY_R: 1.3 g
  KIDNEY_TOTAL: 2.5 g
  LIVER: 13.8 g
  ALP: 862.6 IU/L
  ALT: 32.8 IU/L
  AST: 61.2 IU/L
  BUN: 22.2 mg/dL
  CRE: 0.5 mg/dL
  DBIL: 0 mg/dL
  GLC: 197.6 mg/dL
  IP: 7.8 mg/dL
  K: 4.8 meq/L
  LDH: 85 IU/L
  Na: 138.2 meq/L
  PL: 151.6 mg/dL
  RALB: 4.1 g/dL
  TBIL: 0.3 mg/dL
  TC: 72.6 mg/dL
  TP: 6.1 g/dL
  gamma-GTP: 0.8 IU/L
[8]
  TERMINAL_BW: 346.2 g
  APTT: 15.9 s
  Bas: 0%
  Eos: 1.2%
  Hb: 14.8 g/dL
  Ht: 44.8%
  Lym: 83.4%
  MCH: 18.8 pg
  MCHC: 33.1%
  MCV: 56.6 fL
  Mono: 5.4%
  PT: 11.7 s
  RBC: 790.8 x10_4/ul
  Ret: 2.4%
  WBC: 131.2 x10_2/uL
  KIDNEY_L: 1.4 g
  KIDNEY_R: 1.4 g
  KIDNEY_TOTAL: 2.8 g
  LIVER: 13.8 g
  ALP: 701.4 IU/L
  ALT: 36.6 IU/L
  AST: 65.8 IU/L
  BUN: 22.6 mg/dL
  CRE: 0.5 mg/dL
  DBIL: 0.02 mg/dL
  GLC: 194 mg/dL
  IP: 7.5 mg/dL
  K: 4.9 meq/L
  LDH: 116.8 IU/L
  Na: 137.2 meq/L
  PL: 148.4 mg/dL
  RALB: 4.1 g/dL
  TBIL: 0.3 mg/dL
  TC: 72.8 mg/dL
  TG: 114.6 mg/dL
  TP: 6.2 g/dL
  gamma-GTP: 0.8 IU/L
[9]
  TERMINAL_BW: 239.8 g
  APTT: 16.2 s
  Bas: 0%
